Experiments:
5-HT transporter = molecular target: T1, 5-HT transporter (Rattus norvegicus, UniProt P31652); assay: 5-HT uptake inhibition in rat brain synaptosomes (medulla and pons), [3H]-5-HT; assay type: biochemical
T1 construct: from tissue; host or cells: rat brain synaptosomes (P2 fraction) from medulla and pons
Outline: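 Freshly isolated P2 synaptosomes taken from rat hypothalamus (NA) or medulla/pons (5-HT) were incubated at room temperature under O2 with [3H]-NA for 7.5 min or [3H]-5-HT for 5 min. Uptake was measured as filter-retained radioactivity by scintillation counting.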

NA transporter = molecular target: T2, NA transporter (Rattus norvegicus, UniProt Q63380); assay: noradrenalin uptake inhibition in rat brain synaptosomes (hypothalamus), [3H]-NA; assay type: biochemical
T2 construct: from tissue; host or cells: rat brain synaptosomes (P2 fraction) from hypothalamus
Text: a) Method for Determining Noradrenalin and 5-HT Uptake Inhibition:
Synaptosomes from rat brain regions are freshly isolated for in vitro studies, as described in the publication “The isolation of nerve endings from brain” by E. G. Gray and V. P. Whittaker, J. Anatomy 96, pages 79-88, 1962. The corresponding literature description is hereby introduced as a reference and is deemed to be part of the disclosure.
The tissue (hypothalamus for the determination of noradrenalin uptake inhibition and medulla and pons for the determination of 5-HT uptake inhibition) is homogenised in ice-cooled 0.32 M sucrose (100 mg of tissue/1 mL) in a glass homogeniser with Teflon pestle using five complete up and down strokes at 840 revolutions/minute.
The homogenate is centrifuged at 4° C. for 10 minutes at 1000 g. After subsequent centrifugation at 17000 g for 55 minutes, the synaptosomes (P2 fraction) are obtained, which are resuspended in 0.32 M […] (0.5 mL/100 mg of original weight).
The particular uptake is measured in a 96-well microtitre plate. The volume is 250 μl and the incubation proceeds at room temperature (approx. 20-25° C.) under an O2 atmosphere.
The incubation time is 7.5 minutes for [^3H]-NA and 5 minutes for [^3H]-5-HT. The 96 samples are then filtered through a Unifilter GF/B® microtitre plate (Packard) and washed with 200 mL of incubated buffer using a “Brabdel MPXRI-96T Cell-Harvester”. The Unifilter GF/B plate is dried for 1 hour at 55° C. The plate is then sealed with a Back Seal® (Packard) and 35 μl of scintillation fluid are added per well (Ultima Gold®, Packard). After sealing with a top Seal® (Packard) and establishing an equilibrium (around 5 hours), radioactivity is determined in a “Trilux 1450 Microbeta” (Wallac).
The quantity of protein used in the above determination corresponds to the values known from the literature, as for example described in “Protein measurement with the folin phenol reagent”, Lowry et al., J. Biol. Chem., 193, 265-275, 1951.
A detailed description of the method may additionally be found in the literature, for example in M. Ch. Frink, H.-H. Hennies, W. Engelberger, M. Haurand and B. Wilffert (1996) Arzneim.-Forsch./Drug Res. 46 (III), 11, 1029-1036.

T2 sequence (Q63380 1-617): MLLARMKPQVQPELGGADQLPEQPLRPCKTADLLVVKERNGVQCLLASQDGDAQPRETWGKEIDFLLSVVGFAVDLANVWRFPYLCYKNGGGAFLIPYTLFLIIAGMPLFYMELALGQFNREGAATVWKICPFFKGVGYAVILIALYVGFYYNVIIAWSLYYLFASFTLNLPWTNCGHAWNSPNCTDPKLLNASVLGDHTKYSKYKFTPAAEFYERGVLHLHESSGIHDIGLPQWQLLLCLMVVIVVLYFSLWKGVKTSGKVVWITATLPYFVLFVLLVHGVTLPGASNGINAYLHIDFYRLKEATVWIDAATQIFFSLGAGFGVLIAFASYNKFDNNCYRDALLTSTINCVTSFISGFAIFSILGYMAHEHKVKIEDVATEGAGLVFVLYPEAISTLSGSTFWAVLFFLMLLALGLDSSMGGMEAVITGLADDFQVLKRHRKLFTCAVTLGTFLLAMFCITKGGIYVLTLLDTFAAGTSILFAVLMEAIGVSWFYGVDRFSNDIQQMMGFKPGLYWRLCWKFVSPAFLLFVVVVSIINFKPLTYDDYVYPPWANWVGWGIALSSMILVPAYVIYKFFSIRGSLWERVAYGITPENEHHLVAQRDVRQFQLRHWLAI
T1 sequence (P31652 whole entry): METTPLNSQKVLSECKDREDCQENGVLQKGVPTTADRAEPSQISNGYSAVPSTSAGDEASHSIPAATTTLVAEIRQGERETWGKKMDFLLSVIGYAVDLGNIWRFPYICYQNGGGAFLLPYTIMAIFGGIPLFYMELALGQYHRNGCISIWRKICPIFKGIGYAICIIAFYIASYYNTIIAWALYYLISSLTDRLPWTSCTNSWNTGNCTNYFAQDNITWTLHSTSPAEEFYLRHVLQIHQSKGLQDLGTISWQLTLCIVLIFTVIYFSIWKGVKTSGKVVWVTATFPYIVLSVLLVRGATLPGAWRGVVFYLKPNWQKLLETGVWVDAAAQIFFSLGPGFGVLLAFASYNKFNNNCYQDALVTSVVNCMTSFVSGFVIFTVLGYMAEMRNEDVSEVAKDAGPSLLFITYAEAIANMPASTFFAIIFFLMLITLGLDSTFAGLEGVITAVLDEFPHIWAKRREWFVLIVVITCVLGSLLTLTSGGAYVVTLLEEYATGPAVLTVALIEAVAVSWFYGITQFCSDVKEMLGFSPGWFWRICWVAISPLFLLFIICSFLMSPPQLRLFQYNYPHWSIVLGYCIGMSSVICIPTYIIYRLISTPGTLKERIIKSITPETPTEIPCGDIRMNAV

SMILES | inhibition at 10 µM (5-HT transporter) [%] | inhibition at 10 µM (NA transporter) [%]
O=C(Nc1cc(F)ccc1F)N1CCC2(CC1)CN(Cc1cccc(Br)c1)C(=O)O2 [Example 29, 3-(3-bromobenzyl)-2-oxo-1-oxa-3,8-diazaspiro[4.5]decane-8-carboxylic acid (2,5-difluorophenyl)amide] | 84 | 82
N#Cc1cccc(NC(=O)N2CCC3(CC2)CN(Cc2ccccc2)C(=O)O3)c1 [Example 33, 3-benzyl-2-oxo-1-oxa-3,8-diazaspiro[4.5]decane-8-carboxylic acid (3-cyanophenyl)amide] | 59 | 93
COc1cccc(NC(=O)N2CCC3(CC2)CN(Cc2ccc(F)c(F)c2)C(=O)O3)c1 [Example 35, 3-(3,4-difluorobenzyl)-2-oxo-1-oxa-3,8-diazaspiro[4.5]decane-8-carboxylic acid (3-methoxyphenyl)amide] | 56 | 63
Cc1ccc(CN2CC3(CCN(C(=O)NCc4ccc(Cl)c(Cl)c4)CC3)OC2=O)cc1 [Example 36, 3-(4-methylbenzyl)-2-oxo-1-oxa-3,8-diazaspiro[4.5]decane-8-carboxylic acid 3,4-dichlorobenzylamide] | 56 | 60
COc1ccc(NC(=O)N2CCC3(CC2)CN(Cc2ccccc2)C(=O)O3)cc1 [Example 39, 3-benzyl-2-oxo-1-oxa-3,8-diazaspiro[4.5]decane-8-carboxylic acid (4-methoxyphenyl)amide] | 42 | 76
O=C(NCc1ccc(Cl)c(Cl)c1)N1CCC2(CC1)CN(Cc1cccc(Br)c1)C(=O)O2 [Example 42, 3-(3-bromobenzyl)-2-oxo-1-oxa-3,8-diazaspiro[4.5]decane-8-carboxylic acid 3,4-dichlorobenzylamide] | 60 | 83
O=C(NCc1ccc(Cl)c(Cl)c1)N1CCC2(CC1)CN(Cc1ccc3ccccc3c1)C(=O)O2 [Example 44, 3-naphthalen-2-ylmethyl-2-oxo-1-oxa-3,8-diazaspiro[4.5]decane-8-carboxylic acid 3,4-dichlorobenzylamide] | 57 | 61
COc1ccc(NC(=O)N2CCC3(CC2)CN(Cc2ccc4ccccc4c2)C(=O)O3)cc1 [Example 52, 3-naphthalen-2-ylmethyl-2-oxo-1-oxa-3,8-diazaspiro[4.5]decane-8-carboxylic acid (4-methoxyphenyl)amide] | 94 | 96
CCOC(=O)c1cccc(NC(=O)N2CCC3(CC2)CN(Cc2ccc(C)cc2)C(=O)O3)c1 [Example 53, 3-{[3-(4-methylbenzyl)-2-oxo-1-oxa-3,8-diazaspiro[4.5]decane-8-carbonyl]amino}benzoic acid ethyl ester] | 68 | 81
O=C(NCCc1ccccc1)N1CCC2(CC1)CN(Cc1ccccc1-c1ccccc1)C(=O)O2 [Example 57, 3-biphenyl-2-ylmethyl-2-oxo-1-oxa-3,8-diazaspiro[4.5]decane-8-carboxylic acid phenethylamide] | 50 | 55
CCOC(=O)c1cccc(NC(=O)N2CCC3(CC2)CN(Cc2cccc(C#N)c2)C(=O)O3)c1 [Example 61, 3-{[3-(3-cyanobenzyl)-2-oxo-1-oxa-3,8-diazaspiro[4.5]decane-8-carbonyl]amino}benzoic acid ethyl ester] | 69 | 77
COc1cccc(NC(=O)N2CCC3(CC2)CN(Cc2ccccc2-c2ccccc2)C(=O)O3)c1 [Example 62, 3-biphenyl-2-ylmethyl-2-oxo-1-oxa-3,8-diazaspiro[4.5]decane-8-carboxylic acid (3-methoxyphenyl)amide] | 57 | 67
COc1ccc([N+](=O)[O-])cc1CN1CC2(CCN(C(=O)NC(C)c3cccc4ccccc34)CC2)OC1=O (stereo not shown) [Example 63, 3-(2-methoxy-5-nitrobenzyl)-2-oxo-1-oxa-3,8-diazaspiro[4.5]decane-8-carboxylic acid (1-naphthalen-1-yl-ethyl)amide] | 84 | 41
O=C1OC2(CCN(Cc3ccc([N+](=O)[O-])cc3)CC2)CN1Cc1ccc(F)c(F)c1 [Example 74, 3-(3,4-difluorobenzyl)-8-(4-nitrobenzyl)-1-oxa-3,8-diazaspiro[4.5]decan-2-one] | 66 | 57
COc1ccc(-c2noc(CN3CCC4(CC3)CN(Cc3ccc(F)c(F)c3)C(=O)O4)n2)cc1 [Example 77, 3-(3,4-difluorobenzyl)-8-[3-(4-methoxyphenyl)-[1,2,4]oxadiazol-5-ylmethyl]-1-oxa-3,8-diazaspiro[4.5]decan-2-one] | 50 | 64
O=C1OC2(CCN(Cc3ccc(OC(F)(F)F)cc3)CC2)CN1Cc1ccccc1 [Example 78, 3-benzyl-8-(4-trifluoromethoxybenzyl)-1-oxa-3,8-diazaspiro[4.5]decan-2-one] | 51 | 53
COc1cccc(CN2CC3(CCN(Cc4ccc(Cl)cc4)CC3)OC2=O)c1 [Example 79, 8-(4-chlorobenzyl)-3-(3-methoxybenzyl)-1-oxa-3,8-diazaspiro[4.5]decan-2-one] | 67 | 57
Cc1csc(NC(=O)CN2CCC3(CC2)CN(Cc2ccc(F)c(F)c2)C(=O)O3)c1C#N [Example 80, N-(3-cyano-4-methylthiophen-2-yl)-2-[3-(3,4-difluorobenzyl)-2-oxo-1-oxa-3,8-diazaspiro[4.5]dec-8-yl]acetamide] | 47 | 45
O=C(CN1CCC2(CC1)CN(Cc1ccccc1F)C(=O)O2)Nc1nc(-c2ccccc2)cs1 [Example 86, 2-[3-(2-fluorobenzyl)-2-oxo-1-oxa-3,8-diazaspiro[4.5]dec-8-yl]-N-(4-phenylthiazol-2-yl)acetamide] | 56 | 79
O=C(CN1CCC2(CC1)CN(Cc1ccccc1C(F)(F)F)C(=O)O2)Nc1ccc(OC(F)(F)F)cc1 [Example 87, 2-[2-oxo-3-(2-trifluoromethylbenzyl)-1-oxa-3,8-diazaspiro[4.5]dec-8-yl]-N-(4-trifluoromethoxyphenyl)acetamide] | 72 | 59
N#Cc1ccc(CN2CC3(CCN(Cc4cccc([N+](=O)[O-])c4)CC3)OC2=O)cc1 [Example 89, 4-[8-(3-nitrobenzyl)-2-oxo-1-oxa-3,8-diazaspiro[4.5]dec-3-ylmethyl]benzonitrile] | 63 | 57
O=C1OC2(CCN(C(=O)c3ccc(-c4ccccc4)cc3)CC2)CN1Cc1cccc(Br)c1 [Example 104, 8-(biphenyl-4-carbonyl)-3-(3-bromobenzyl)-1-oxa-3,8-diazaspiro[4.5]decan-2-one] | 89 | 73
O=C1OC2(CCN(C(=O)c3ccc([N+](=O)[O-])cc3)CC2)CN1Cc1cccc(Br)c1 [Example 109, 3-(3-bromobenzyl)-8-(4-nitrobenzoyl)-1-oxa-3,8-diazaspiro[4.5]decan-2-one] | 81 | 78
